ChEMBL document CHEMBL1147852, “Synthesis and biology of bis-xylosylated dihydroxynaphthalenes” (2007)
pEC50: −log10 of the molar value.

Test system: T-24
Assay: Antiproliferative activity against human T24 cells
Format: functional
Settings: read-out: ED50 (the source's name)

Row | Structure (SMILES) | pEC50
1 | O[C@@H]1[C@@H](O)[C@H](Oc2cccc3c(O[C@@H]4OC[C@@H](O)[C@H](O)[C@H]4O)cccc23)OC[C@H]1O | 3.40
2 | O[C@@H]1[C@@H](Oc2ccc3ccc(O[C@@H]4OC[C@@H](O)[C@H](O)[C@H]4O)cc3c2)OC[C@H](O)[C@H]1O | 3.35
3 | O[C@@H]1[C@@H](O)[C@H](Oc2ccc3cc(O[C@@H]4OC[C@@H](O)[C@H](O)[C@H]4O)ccc3c2)OC[C@H]1O | < 3.40
4 | O[C@@H]1[C@@H](O)[C@H](Oc2cc(O[C@@H]3OC[C@@H](O)[C@H](O)[C@H]3O)c3ccccc3c2)OC[C@H]1O | < 3.40
5 | O[C@@H]1[C@@H](O)[C@H](Oc2ccc(O[C@@H]3OC[C@@H](O)[C@H](O)[C@H]3O)c3ccccc23)OC[C@H]1O | 3.40
